Measurements taken from patent US20210254000A1, “PROCESS FOR PRODUCING A T CELL COMPOSITION” (Juno Therapeutics, Inc., priority 2017, published 2021).
Where two headings read alike, the source gives them in different places.

Assays:
CAR-T cells = assay: Expansion of CAR-T cells on CAR-specific beads for 14 days (mixed CD4+/CD8+ process); type: cell-based, human; settings: CAR-T cells prepared with 2 μM PI103 or 1 μM Compound 63
Method: (§1) Separate compositions of CD4+ and CD8+ cells were selected from isolated PBMCs from a leukapheresis sample from the same human donor by immunoaffinity based selection, and the selected cell compositions were cryofrozen. The separate compositions of CD4+ and CD8+ T cells were subsequently thawed and mixed at a ratio of 1:1 of viable CD4+ T cells to viable CD8+ T cells. In this study, the mixed CD4+ and CD8+ cell populations were incubated in the presence of Compound 63, PI103 or no inhibitor (DMSO vehicle control) beginning at the initiation of stimulation. In more detail, the mixed CD4+ and CD8+ T cell composition was stimulated (in the presence or absence of an inhibitor, as indicated) in the presence of paramagnetic polystyrene-coated beads with attached anti-CD3 and anti-CD28 antibodies for between 18 to 30 hours, and were then transduced with a lentiviral vector encoding an anti-CD19 CAR. The CAR contained an scFv antigen-binding domain specific for CD19 (derived from FMC63), a CD28 transmembrane region, a 4-1BB costimulatory signaling region, and a CD3-zeta derived intracellular signaling domain. […]
Functional attributes of the generated CAR-T cells were assessed in a serial stimulation assay by incubation of the generated CAR-T cells antibody conjugated to beads. […] Every 3-4 days, T cells were, counted.

Ribo-S6 phosphorylation = assay: Inhibition of ribosomal protein S6 phosphorylation in stimulated primary human T cells (flow cytometry); type: cell-based
Method: The dose effect of exemplary mTOR kinase inhibitors in primary human T cells was assessed by monitoring inhibition of ribosomal protein S6.
CD4+ and CD8+ T cells were isolated by immunoaffinity-based enrichment from leukapheresis samples from human donor subjects. Isolated CD4+ and CD8+ T cells were mixed 1:1 and stimulated with anti-CD3/anti-CD28 magnetic beads in the presence of increasing concentrations of an mTOR kinase inhibitor, PI-103, Compound 155, Compound 63, or Compound 246. The T cell cultures were incubated overnight (approximately 16 hr) at 37° C. Following incubation in the presence of PI-103, Compound 155, Compound 63, or Compound 246, T cells were assessed for intracellular S6 phosphorylation and co-stained for surface expression of CD4 or CD8, by flow cytometry.

[1] = tested on: anti-CD19 CAR-T cells co-cultured with irradiated K562-CD19 target cells; assay: Cytokine secretion after antigen stimulation (Luminex); type: cell-based, human; settings: cells expanded with 200 nM PI-103 or 1 μM Compound 63; E:T 1:1, ~16 hours
Method: Separate compositions of CD4+ and CD8+ cells were isolated from three human donors, activated and transduced with a viral vector encoding an anti-CD19 CAR substantially as described in Example 2. After transduction, the CD4+ and CD8+ T cells derived from each donor were separately incubated for 8 days in the presence of a mTOR kinase inhibitor to expand T cells substantially as described in Example 2, except in the presence of 200 nM PI-103, 1 μM Compound 63, or with DMSO vehicle or media only controls. CD4+ and CD8+ T cells from each donor were then separately harvested, formulated, and cryofrozen. The cryofrozen engineered CD4+ and CD8+ T cells were thawed, washed to remove compound, and cells from the same donor were then combined at a ratio of 1:1 viable CD4+/CAR+ to viable CD8+/CAR+ T cells to produce an expanded anti-CD19 CAR-T cell composition containing CD4+ and CD8+ T cells. Functional activities of the generated anti-CD19 CAR-T cell compositions were assessed.
To measure cytokines following antigen stimulation, cells from the generated anti-CD19 CAR-T cell compositions were co-cultured with irradiated K562-CD19 target cells or K562 parental target cells at an effector:target cell ratio of 1:1. After overnight (˜16 hours) culture, cell culture supernatants were harvested and TNF-alpha, IFN-gamma, and IL-2 cytokine production were measured using a Luminex Multiplex Assay. The fold-change of cytokine production observed in co-culture supernatants was determined from generated anti-CD19 CAR-T cell compositions expanded in the presence of PI-103, Compound 63, or DMSO vehicle compared to cells expanded in media only.

[2] = tested on: CD19-expressing target cells; assay: Cytolytic activity of CAR-T cells (mixed CD4+/CD8+ process); type: cell-based, human; settings: CAR-T cells prepared with 2 μM PI103 or 1 μM Compound 63; freshly thawed or day 14; 3:1 effector to target
Method: as §1, with “CAR.” for “CAR. The CAR contained an scFv antigen-binding domain specific for CD19 (derived from FMC63), a CD28 transmembrane region, a 4-1BB costimulatory signaling region, and a CD3-zeta derived intracellular signaling domain.”
Cytolytic activity of the generated CAR-T cells was assessed by culturing the generated CAR-T cells, either freshly thawed or at day 14 of restimulation from above, with CD19-expressing target cells at a 3:1 effector to target ratio. Target cell death was quantitated over time. The tumor cell growth area under the curve (AUC) of signal over time for each concentration was determined. A killing index was calculated as the inverse of the area under the tumor cell growth curve (1/AUC).

[3] = tested on: engineered CD8+ and CD4+ T cells; assay: T cell expansion of anti-CD19 CAR-transduced CD4+ and CD8+ T cells incubated with mTOR kinase inhibitor; type: cell-based; settings: human
Method: Separate compositions of CD4+ and CD8+ cells were isolated from human leukapheresis samples by immunoaffinity-based enrichment and cryofrozen. The CD4+ and CD8+ cells of the compositions were subsequently thawed and activated by separately culturing the cells under stimulating conditions in the presence of anti-CD3/anti-CD28 magnetic beads and recombinant IL-2, IL-7 and/or IL-15 for approximately 20 hours. Cells were then transduced with a viral vector encoding an anti-CD19 chimeric antigen receptor (CAR). After transduction, the CD4+ and CD8+ cells were separately incubated in the presence of an mTOR kinase inhibitor, either Compound 155, Compound 63, or Compound 246, at various concentrations. For controls, cells were incubated with media only, DMSO vehicle, or with 200 nM PI-103. Incubation was carried out at 37° C. for approximately 8 days post-thaw with one media change, at which point the compounds were re-added to the culture media at the same concentration.
The percent of CD8+ and CD4+ T cells at the end of the process as compared to the amount of cells seeded for culture following the transduction is shown in FIG. 2. The cutoff for selecting a tolerated dose was set at 70% of the mean values of the media and DMSO controls.

caspase 3 = assay: Intracellular caspase 3 in thawed CAR-T cells prepared with inhibitor; type: cell-based, human; settings: thawed CAR-T cells prepared with 1 μM Compound 63 vs DMSO; three donors
Method: as §1, with “domain. The cells were then expanded in the presence of cytokines typically for approximately 6-7 days.” for “domain.”
The cells were assessed by flow cytometry for levels of the cell surface markers and levels of pro-apoptotic marker, intracellular caspase 3.

[4] = Homo sapiens, T-cell, CD8+ T cells, read-out: IC50 for inhibition of Ribo-S6 phosphorylation, CD8
[5] = Homo sapiens, CD4+ T cells, read-out: IC50 for inhibition of Ribo-S6 phosphorylation, CD4
[6] = T-cell, primary human CD4+/CD8+ T cells mixed 1:1, anti-CD3/anti-CD28 beads, approximately 16 hr, read-out: IC50 for the inhibition of S6 phosphorylation in the T cells

| Compound | expansion after restimulation with CAR-specific beads (CAR-T cells) | IC50 (Ribo-S6 phosphorylation; [4]) [µM] | IC50 (Ribo-S6 phosphorylation; [5]) [µM] | IC50 (Ribo-S6 phosphorylation; [6]) [µM] | cytokine production (TNF-alpha, IFN-gamma, IL-2) compared to control cells [1] | production of IFN-gamma compared to control cells [1] | target cell killing (killing index 1/AUC) compared to CAR-T cells prepared with DMSO [2] | highest tolerated dose resulting in similar CD8 and CD4 T cell expansion as vehicle control [3] [µM] | levels of pro-apoptotic marker intracellular caspase 3 (caspase 3) |
| --- | --- | --- | --- | --- | --- | --- | --- | --- | --- |
| Oc1cccc(-c2nc(N3CCOCC3)c3oc4ncccc4c3n2)c1 [PI-103, reference compound] | improved expansion after restimulation | 0.0884 | 0.121 | ~0.1 | improvements in cytokine production | improved | improved target cell killing |  |  |
| CC(C)c1ccccc1-n1c(=O)[nH]c2c(C(N)=O)nc(-c3cccc(O)c3)nc21 [Compound 63, 2-(3-Hydroxyphenyl)-9-(2-isopropylphenyl)-8-oxo-8,9-dihydro-7H-purine-6-carboxamide] | improved expansion after restimulation | 0.503 | 0.468 | ~0.5 | improvements in cytokine production | improved | improved target cell killing | 1 | decreased levels |
